This note sets out measurements from article PMC5423977, “Safety, pharmacokinetics, and pharmacodynamics of BMS-986142, a novel reversible BTK inhibitor, in healthy participants” (European Journal of Clinical Pharmacology, 2017).

Structures are written as SMILES. Where “and” joins values, the source holds several entries; their conditions need not be identical. Identical values can stand only once.

The subject of the experiment is CD69 expression on B cells. As to the kind of experiment: Ex vivo anti-IgD-dextran induced CD69 expression on B cells in whole blood. In kind it is cell-based, human. How it is done:
To assess the functional effect of BMS-986142 on a relevant pathway in the targeted cells, whole blood was stimulated ex vivo with anti-IgD-dextran to activate signal transduction through the B cell antigen receptor. B cells, identified by CD20, were assessed for expression of CD69. Blood was incubated without addition of anti-IgD-dextran to serve as a negative control. Samples were incubated for 24 h at 37 °C, and then fixed and stained for CD20 and CD69. CD69 expression was quantified by standardized flow cytometry. Fluorescence intensity was measured and reported in units of mean equivalents of soluble fluorescein (MESF). Background CD69 level was measured from samples without the addition of anti-IgD-dextran and was subtracted from the stimulated value. The anti-IgD specific CD69 induction was used for analysis. The result for each sample was expressed as a percentage inhibition relative to the pre-dose sample.
CD69 inhibition by BMS-986142 was tabulated by treatment and time, and corresponding changes from baseline were calculated and summarized. The inhibition of B cell receptor-mediated CD69 expression by BMS-986142 was descriptively summarized by treatment and study days. An exposure-response analysis was applied to characterize the relationship between BMS-986142 concentration and CD69 inhibition using a Bayesian Emax model. […]

As for `Cc1c(-c2c(F)cc(C(N)=O)c3[nH]c4c(c23)CC[C@H](C(C)(C)O)C4)cccc1-n1c(=O)c2cccc(F)c2n(C)c1=O` [BMS-986142, 6-fluoro-5-(R)-(3-(S)-(8-fluoro-1-methyl-2,4-dioxo-1,2-dihydroquinazolin-3(4H)-yl)-2-methylphenyl)-2-(S)-(2-hydroxypropan-2-yl)-2,3,4,9-tetrahydro-1H-carbazole-8-carboxamide], the IC50 (Homo sapiens, B-cell, plasma concentration, Bayesian Emax model, SAD and MAD data, read-out: IC50, concentration to inhibit 50% of CD69 expression) was 145 nM and 0.083 µg/mL. Further, the “Mean maximal inhibition of CD69 expression” value (dose levels greater than 100 mg) was about 100%.
